Data on 73 compounds can be found in US9687479B2, “Multisubstituted aromatic compounds as serine protease inhibitors” (VERSEON CORPORATION, priority 2013, dated 2017).

The first test deals with Human KLKB1 (Homo sapiens (Human), UniProt P03952). Nature of the test: KLKB1 kallikrein activity inhibition assay (chromogenic substrate S-2302). The test is classed as biochemical.
Human KLKB1, sequence (P03952 391-638 limits assumed): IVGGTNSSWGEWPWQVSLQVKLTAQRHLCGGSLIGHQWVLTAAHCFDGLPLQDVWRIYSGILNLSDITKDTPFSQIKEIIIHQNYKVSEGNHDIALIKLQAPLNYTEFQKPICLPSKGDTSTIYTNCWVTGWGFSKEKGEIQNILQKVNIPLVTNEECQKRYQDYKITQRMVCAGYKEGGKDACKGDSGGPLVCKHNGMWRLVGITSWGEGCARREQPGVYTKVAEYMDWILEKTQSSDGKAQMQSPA
Human KLKB1, sequence (P03952 20-390 partner limits assumed): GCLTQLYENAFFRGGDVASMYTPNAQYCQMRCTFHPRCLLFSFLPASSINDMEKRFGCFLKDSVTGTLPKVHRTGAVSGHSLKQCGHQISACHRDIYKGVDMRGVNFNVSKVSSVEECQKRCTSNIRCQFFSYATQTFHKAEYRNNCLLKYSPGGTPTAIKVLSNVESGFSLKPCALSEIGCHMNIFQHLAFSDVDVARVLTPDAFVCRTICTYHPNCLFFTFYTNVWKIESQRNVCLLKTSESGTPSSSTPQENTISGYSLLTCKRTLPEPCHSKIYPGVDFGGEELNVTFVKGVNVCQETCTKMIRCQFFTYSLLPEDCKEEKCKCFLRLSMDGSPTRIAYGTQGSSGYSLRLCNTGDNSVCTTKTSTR
Conditions: not given
On the procedure:
The KLKB1 kallikrein activity reported herein (e.g., Tables B, C, and D) was obtained as follows. Human KLKB1 protein was obtained from Enzyme Research Labs. […] KLKB1 was assayed in buffer containing 0.05 M Tris (pH 7.4), 0.01 M NaCl and 0.2% w/v PEG-8000. The final concentration of enzyme used was 3 nM KLKB1. […] All assays were performed in 96-well microtiter plates at room temperature (RT). […] Inhibitor IC50 values were determined by adding test compound as ten point, three-fold serial dilutions in buffer solution, as known in the art. The plate was read at 10 minutes after substrate addition. The IC50 was calculated by plotting the percent (%) inhibition against compound concentration and fitting the data to a constrained four parameter sigmoidal curve, as known in the art.
The IC50 is the midpoint of a concentration-inhibition curve. For `COC(=O)c1n[nH]c(NC(=O)c2ccc(C)cc2)n1` [Cmpd 408, methyl 5-[(4-methylbenzene)amido]-1H-1,2,4-triazole-3-carboxylate], the half-inhibitory concentration (IC50) was more than 100 µM.

Staying with this test, now noted: 3 nM KLKB1, 250 μM S-2302, 10 min pre-incubation, RT.
Take `O=C(NCc1ccc2[nH]cc(Cl)c2c1)[C@@H]1CC(=O)N(Cc2ccc(Cl)cc2)C1` [Cmpd 414, (3R)-N-[(3-chloro-1H-indol-5-yl)methyl]-1-[(4-chlorophenyl)methyl]-5-oxopyrrolidine-3-carboxamide]: the IC50 is more than 100 µM.

For the compound `O=C(NCc1ccc2[nH]cc(Cl)c2c1)[C@H]1CC(=O)N(Cc2ccccc2)C1` [Cmpd 415, (3S)-1-benzyl-N-[(3-chloro-1H-indol-5-yl)methyl]-5-oxopyrrolidine-3-carboxamide], the IC50 is more than 100 µM.

With `Cn1cc(Cl)c2cc(CNC(=O)[C@H]3CC(=O)N(Cc4ccc(Cl)cc4)C3)ccc21` [Cmpd 416, (3S)-N-[(3-chloro-1-methyl-1H-indol-5-yl)methyl]-1-[(4-chlorophenyl)methyl]-5-oxopyrrolidine-3-carboxamide], the IC50 was 10 to 100 µM.

Take `O=C(NCc1ccc2[nH]cc(Cl)c2c1)[C@H]1CC(=O)N(Cc2ccccc2Cl)C1` [Cmpd 417, (3S)-N-[(3-chloro-1H-indol-5-yl)methyl]-1-[(2-chlorophenyl)methyl]-5-oxopyrrolidine-3-carboxamide]: the IC50 is 10 to 100 µM.

Still in this test, the particulars now being: Table C.
With `COc1ccccc1C(=O)n1nc(-c2ccccc2)nc1NCc1nccs1` [Cmpd 333], the IC50 was more than 100 µM.

In turn, `COc1ccccc1C(=O)n1nc(-c2ccccc2)nc1NCc1ccsc1` [Cmpd 335] displayed a half-maximal inhibitory concentration (IC50) of 10 to 100 µM.

Regarding `COc1ccc(CNc2nc(-c3ccccn3)nn2C(=O)c2ccco2)cc1` [Cmpd 336], the IC50 is 1 to 10 µM.

`COc1ccc(CNc2nc(-c3ccncc3)nn2C(=O)c2ccco2)cc1` [Cmpd 337] showed an IC50 of more than 100 µM.

`COc1ccc(CNc2nc(-c3ccccn3)nn2C(=O)c2ccoc2)cc1` [Cmpd 338] displayed an IC50 of 10 to 100 µM.

In the case of `COc1ccc(CNc2nc(-c3cccnc3)nn2C(=O)c2ccoc2)cc1` [Cmpd 339], the IC50 is more than 100 µM.

`CCC(=O)n1nc(-c2cccnc2)nc1NCc1cccs1` [Cmpd 340] returned a half-inhibitory concentration (IC50) of 10 to 100 µM.

`COc1ccccc1C(=O)n1nc(C2CCN(C(=O)C(C)(C)C)CC2)nc1NCc1ccc(Cl)s1` [Cmpd 341]: the IC50 was 0.1 to 1 µM.

The compound `CC(C)(C)C(=O)n1nc(-c2ccco2)nc1NCc1ccccc1` [Cmpd 342] came in with an IC50 of more than 100 µM.

`O=C(Cc1ccccc1)n1nc(-c2ccco2)nc1NCc1ccccc1` [Cmpd 343] returned a concentration for half-maximal inhibition (IC50) of more than 100 µM.

`CC(C)(C)C(=O)n1nc(-c2ccccn2)nc1NCc1ccccc1` [Cmpd 344] had a half-maximal inhibitory concentration (IC50) of 10 to 100 µM.

For `CC(C)C(=O)n1nc(-c2ccccn2)nc1NCc1ccccc1` [Cmpd 345], the IC50 lay in the range of 10 to 100 µM.

On to `CC(C)CC(=O)n1nc(-c2ccccn2)nc1NCc1ccccc1` [Cmpd 346], for which the half-inhibitory concentration (IC50) is 10 to 100 µM.

In turn, `CCCC(=O)n1nc(-c2ccccn2)nc1NCc1ccccc1` [Cmpd 347] gave an IC50 of 10 to 100 µM.

On to `CCC(=O)n1nc(-c2ccccn2)nc1NCc1ccccc1` [Cmpd 348], for which the IC50 fell in the range of 10 to 100 µM.

Compound `CCC(=O)n1nc(-c2cccnc2)nc1NCc1ccccc1` [Cmpd 349] gave a half-inhibitory concentration (IC50) of 10 to 100 µM.

For `CC(C)(C)C(=O)n1nc(-c2ccncc2)nc1NCc1ccccc1` [Cmpd 350], the 50% inhibitory concentration (IC50) is more than 100 µM.

For the compound `CC(C)C(=O)n1nc(-c2ccncc2)nc1NCc1ccccc1` [Cmpd 351], the IC50 is 1 to 10 µM.

`O=C(Cc1ccccc1)n1nc(-c2ccncc2)nc1NCc1ccccc1` [Cmpd 352] returned an IC50 of more than 100 µM.

Take `CC(C)CC(=O)n1nc(-c2ccncc2)nc1NCc1ccccc1` [Cmpd 353]: the half-inhibitory concentration (IC50) was more than 100 µM.

The compound `O=C(CCc1ccccc1)n1nc(-c2ccncc2)nc1NCc1ccccc1` [Cmpd 354] had a 50% inhibitory concentration (IC50) of more than 100 µM.

In turn, `CCCC(=O)n1nc(-c2ccncc2)nc1NCc1ccccc1` [Cmpd 355] showed a 50% inhibitory concentration (IC50) of more than 100 µM.

`CCC(=O)n1nc(-c2ccncc2)nc1NCc1ccccc1` [Cmpd 356]: the IC50 is more than 100 µM.

With `CC(C)(C)C(=O)n1nc(-c2cccs2)nc1NCc1ccccc1` [Cmpd 357], the half-maximal inhibitory concentration (IC50) was more than 100 µM.

`O=C(c1ccccc1)n1nc(-c2cccnc2)nc1NCc1ccc(F)cc1` [Cmpd 359]: the IC50 is 0.1 to 1 µM.

In the case of `O=C(c1ccccc1)n1nc(-c2ccncc2)nc1NCc1ccccc1` [Cmpd 363], the IC50 fell in the range of 0.1 to 1 µM.

Compound `COc1ccccc1C(=O)n1nc(C2CN(S(=O)(=O)N(C)C)C2)nc1NCc1ccc(Cl)s1` [Cmpd 364] returned an IC50 of less than 0.1 µM.

In turn, `O=C(c1cccnc1)n1nc(-c2cccnc2)nc1NCc1cccs1` [Cmpd 365] yielded an IC50 of 1 to 10 µM.

For the compound `COc1ccccc1C(=O)n1nc(-c2ccccn2)nc1NCc1ccc(F)cc1` [Cmpd 367], the IC50 is 1 to 10 µM.

On to `COc1ccccc1C(=O)n1nc(-c2cccnc2)nc1NCc1ccc(F)cc1` [Cmpd 368], for which the IC50 lay in the range of 1 to 10 µM.

`O=C(c1ccco1)n1nc(-c2ccccn2)nc1NCc1ccc(F)cc1` [Cmpd 369]: the IC50 was in the range of 1 to 10 µM.

In turn, `O=C(c1ccco1)n1nc(-c2cccnc2)nc1NCc1ccc(F)cc1` [Cmpd 370] registered an IC50 of 1 to 10 µM.

Consider `O=C(c1ccoc1)n1nc(-c2ccccn2)nc1NCc1ccc(F)cc1` [Cmpd 371], for which the half-maximal inhibitory concentration (IC50) fell in the range of 1 to 10 µM.

As to `O=C(c1ccoc1)n1nc(-c2cccnc2)nc1NCc1ccc(F)cc1` [Cmpd 372], the IC50 lay within 1 to 10 µM.

Take `O=C(c1ccoc1)n1nc(-c2ccncc2)nc1NCc1ccc(F)cc1` [Cmpd 373]: the half-maximal inhibitory concentration (IC50) was more than 100 µM.

Turning to `CCCn1nc(-c2ccccn2)nc1NCc1ccc(F)cc1` [Cmpd 374], the IC50 was more than 100 µM.

`O=C(c1ccsc1)n1nc(-c2ccccn2)nc1NCc1ccc(F)cc1` [Cmpd 375]: the concentration for half-maximal inhibition (IC50) was in the range of 0.1 to 1 µM.

In turn, `O=C(c1cccs1)n1nc(-c2cccnc2)nc1NCc1ccc(F)cc1` [Cmpd 376] yielded a half-inhibitory concentration (IC50) of 1 to 10 µM.

In the case of `O=C(c1ccsc1)n1nc(-c2cccnc2)nc1NCc1ccc(F)cc1` [Cmpd 377], the concentration for half-maximal inhibition (IC50) lay within 0.1 to 1 µM.

In turn, `O=C(c1cccs1)n1nc(-c2ccncc2)nc1NCc1ccc(F)cc1` [Cmpd 378] registered a half-maximal inhibitory concentration (IC50) of more than 100 µM.

The compound `COc1ccc(CNc2nc(-c3ccccn3)nn2C(=O)c2cccs2)cc1` [Cmpd 379] had an IC50 of more than 100 µM.

In turn, `COc1ccc(CNc2nc(-c3ccccn3)nn2C(=O)c2ccsc2)cc1` [Cmpd 380] showed an IC50 of 1 to 10 µM.

For the compound `COc1ccc(CNc2nc(-c3cccnc3)nn2C(=O)c2cccs2)cc1` [Cmpd 381], the concentration for half-maximal inhibition (IC50) was more than 100 µM.

`COc1ccc(CNc2nc(-c3cccnc3)nn2C(=O)c2ccsc2)cc1` [Cmpd 382] displayed a concentration for half-maximal inhibition (IC50) of 1 to 10 µM.

Regarding `COc1ccccc1C(=O)n1nc(-c2ccccc2)nc1NCc1ccc(Cl)o1` [Cmpd 383], the IC50 was more than 100 µM.

Take `COc1ccccc1C(=O)n1nc(C2CCOCC2)nc1NCc1ccc(Cl)s1` [Cmpd 385]: the half-inhibitory concentration (IC50) was 0.1 to 1 µM.

As for `COc1ccccc1C(=O)n1nc(C2CCCO2)nc1NCc1ccc(Cl)s1` (stereo not shown) [Cmpd 386], the half-maximal inhibitory concentration (IC50) is 0.1 to 1 µM.

On to `COc1ccccc1C(=O)n1nc(C2CN(S(=O)(=O)N3CCCC3)C2)nc1NCc1ccc(Cl)s1` [Cmpd 388], for which the half-inhibitory concentration (IC50) was less than 0.1 µM.

As for `COc1ccccc1C(=O)n1nc(-c2ccc(N3CCOCC3)cc2)nc1NCc1ccc(Cl)s1` [Cmpd 389], the IC50 was 1 to 10 µM.

On to `O=C(c1ccoc1)n1nc(C2CCCO2)nc1NCc1ccc(Cl)s1` (stereo not shown) [Cmpd 392], for which the half-inhibitory concentration (IC50) was in the range of 0.1 to 1 µM.

In turn, `O=C(c1c(F)cccc1F)n1nc(-c2ccccn2)nc1NCc1ccccc1` [Cmpd 394] returned a half-inhibitory concentration (IC50) of more than 100 µM.

In turn, `O=C(c1ccccc1Cl)n1nc(-c2ccccn2)nc1NCc1ccccc1` [Cmpd 395] showed an IC50 of 0.1 to 1 µM.

Take `O=C(c1ccccc1Cl)n1nc(-c2cccs2)nc1NCc1ccccc1` [Cmpd 396]: the concentration for half-maximal inhibition (IC50) was 0.1 to 1 µM.

Consider `COc1ccccc1C(=O)n1nc(-c2ccccn2)nc1NCc1ccccc1` [Cmpd 397], for which the half-inhibitory concentration (IC50) is 1 to 10 µM.

Take `COc1ccccc1C(=O)n1nc(-c2cccs2)nc1NCc1ccccc1` [Cmpd 398]: the concentration for half-maximal inhibition (IC50) fell in the range of 1 to 10 µM.

On to `O=C(c1ccc(Cl)cc1)n1nc(-c2ccccn2)nc1NCc1ccccc1` [Cmpd 399], for which the IC50 was 0.1 to 1 µM.

`O=C(c1ccco1)n1nc(-c2ccncc2)nc1NCc1ccccc1` [Cmpd 400]: the IC50 was 1 to 10 µM.

In turn, `O=C(c1ccoc1)n1nc(-c2ccccn2)nc1NCc1ccccc1` [Cmpd 401] registered an IC50 of more than 100 µM.

In turn, `O=C(c1ccoc1)n1nc(-c2ccncc2)nc1NCc1ccccc1` [Cmpd 402] showed a half-maximal inhibitory concentration (IC50) of 10 to 100 µM.

The compound `COc1ccccc1C(=O)n1nc(-c2ccco2)nc1NCc1ccccc1` [Cmpd 403] gave an IC50 of 1 to 10 µM.

Compound `O=C(c1cccs1)n1nc(-c2ccccn2)nc1NCc1ccccc1` [Cmpd 404] registered an IC50 of 1 to 10 µM.

`O=C(c1ccsc1)n1nc(-c2ccccn2)nc1NCc1ccccc1` [Cmpd 405] returned an IC50 of 10 to 100 µM.

Compound `O=C(c1cccs1)n1nc(-c2ccncc2)nc1NCc1ccccc1` [Cmpd 406] showed a concentration for half-maximal inhibition (IC50) of more than 100 µM.

`O=C(Oc1ccccc1)n1nc(-c2cccnc2)nc1NCc1ccc(F)cc1` [Cmpd 409] displayed an IC50 of more than 100 µM.

The compound `CC(C)OC(=O)n1nc(-c2cccnc2)nc1NCc1ccc(F)cc1` [Cmpd 410] came in with an IC50 of more than 100 µM.

`COc1ccccc1C(=O)n1nc(C2CN(C(=O)OC(C)(C)C)C2)nc1NCc1ccc(Cl)s1` [Cmpd 411] registered a 50% inhibitory concentration (IC50) of 0.1 to 1 µM.

For `COc1ccccc1C(=O)n1nc(C2CCN(C(=O)OC(C)(C)C)CC2)nc1NCc1ccc(Cl)s1` [Cmpd 412], the concentration for half-maximal inhibition (IC50) lay in the range of 0.1 to 1 µM.

Regarding `CC(C)(C)OC(=O)n1nc(-c2cccnc2)nc1NCc1ccc(F)cc1` [Cmpd 413], the IC50 is more than 100 µM.
